Data taken from ChEMBL document CHEMBL1240467, “Synthesis and antibacterial activities of 6-O-methylerythromycin A 9-O-(3-aryl-2-propenyl) oxime ketolide, 2,3-enol ether, and alkylide analogues” (2010).
In brackets after ≈: the same amount, converted by molar mass. Values belong to the compound of their own block, whether it stands above or below them.

What was measured:
Format in all cases: functional
Streptococcus pneumoniae [1] = test: Antibacterial activity against erythromycin-susceptible Streptococcus pneumoniae ATCC 49619 by broth microdilution method
Staphylococcus aureus [2] = test: Antibacterial activity against erythromycin-susceptible Staphylococcus aureus ATCC 29213 by broth microdilution method
Streptococcus pneumoniae [3] = test: Antibacterial activity against erythromycin-resistant Streptococcus pneumoniae PU-11 expressing erm and mef gene by broth microdilution method
Streptococcus pneumoniae [4] = test: Antibacterial activity against erythromycin-resistant Streptococcus pneumoniae PU-09 expressing mef gene by broth microdilution method
Staphylococcus aureus [5] = test: Antibacterial activity against erythromycin-resistant Staphylococcus aureus PU-32 expressing erm(A) gene by broth microdilution method
Streptococcus pneumoniae [6] = test: Antibacterial activity against erythromycin-resistant Streptococcus pneumoniae PU-27 expressing erm gene by broth microdilution method
Staphylococcus aureus [7] = test: Antibacterial activity against erythromycin-resistant Staphylococcus aureus PU-19 expressing erm(A) gene by broth microdilution method

SMILES: CC[C@H]1OC(=O)[C@H](C)[C@@H](O[C@H]2C[C@@](C)(OC)[C@@H](O)[C@H](C)O2)[C@H](C)[C@@H](O[C@@H]2O[C@H](C)C[C@H](N(C)C)[C@H]2O)[C@](C)(OC)C[C@@H](C)C(=O)[C@H](C)[C@@H](O)[C@]1(C)O [CLARITHROMYCIN]
MIC (Streptococcus pneumoniae [1]): 0.032 µg/mL (≈ 0.0428 µM) | MIC (Staphylococcus aureus [2]): 0.125 µg/mL (≈ 0.167 µM) | MIC (Streptococcus pneumoniae [3]): 128 µg/mL (≈ 171 µM) | MIC (Streptococcus pneumoniae [4]): 4 µg/mL (≈ 5.35 µM) | MIC (Staphylococcus aureus [5]): 64 µg/mL (≈ 85.6 µM) | MIC (Streptococcus pneumoniae [6]): 16 µg/mL (≈ 21.4 µM) | MIC (Staphylococcus aureus [7]): > 256 µg/mL

SMILES: CC[C@H]1OC(=O)[C@H](C)C(=O)[C@H](C)[C@@H](O[C@H]2O[C@H](C)C[C@H](N(C)C)[C@H]2O)[C@](C)(OC)C[C@@H](C)/C(=N\OC/C=C/c2cnc3ccccc3c2)[C@H](C)[C@@H]2OC(=O)O[C@]12C
MIC (Streptococcus pneumoniae [1]): ≤ 0.016 µg/mL | MIC (Staphylococcus aureus [2]): 0.032 µg/mL (≈ 0.0402 µM) | MIC (Streptococcus pneumoniae [3]): 32 µg/mL (≈ 40.2 µM) | MIC (Staphylococcus aureus [5]): 0.064 µg/mL (≈ 0.0804 µM) | MIC (Staphylococcus aureus [7]): 64 µg/mL (≈ 80.4 µM)

SMILES: CC[C@H]1OC(=O)[C@H](C)C(=O)[C@H](C)[C@@H](O[C@H]2O[C@H](C)C[C@H](N(C)C)[C@H]2O)[C@](C)(OC)C[C@@H](C)/C(=N\OC/C=C/c2ccc(-n3ccnc3)cc2)[C@H](C)[C@@H]2OC(=O)O[C@]12C
MIC (Streptococcus pneumoniae [1]): ≤ 0.016 µg/mL | MIC (Staphylococcus aureus [2]): 0.125 µg/mL (≈ 0.154 µM) | MIC (Streptococcus pneumoniae [3]): 32 µg/mL (≈ 39.5 µM) | MIC (Streptococcus pneumoniae [4]): 0.125 µg/mL (≈ 0.154 µM) | MIC (Staphylococcus aureus [5]): 0.125 µg/mL (≈ 0.154 µM) | MIC (Streptococcus pneumoniae [6]): 1 µg/mL (≈ 1.23 µM) | MIC (Staphylococcus aureus [7]): 64 µg/mL (≈ 78.9 µM)

SMILES: CC[C@H]1OC(=O)[C@H](C)C(=O)[C@H](C)[C@@H](O[C@H]2O[C@H](C)C[C@H](N(C)C)[C@H]2O)[C@](C)(OC)C[C@@H](C)/C(=N\OC/C=C/c2ccc3ncccc3c2)[C@H](C)[C@@H]2OC(=O)O[C@]12C
MIC (Streptococcus pneumoniae [1]): ≤ 0.016 µg/mL | MIC (Staphylococcus aureus [2]): 0.032 µg/mL (≈ 0.0402 µM) | MIC (Streptococcus pneumoniae [3]): 32 µg/mL (≈ 40.2 µM) | MIC (Streptococcus pneumoniae [4]): 0.25 µg/mL (≈ 0.314 µM) | MIC (Staphylococcus aureus [5]): ≤ 0.016 µg/mL | MIC (Streptococcus pneumoniae [6]): 1 µg/mL (≈ 1.26 µM) | MIC (Staphylococcus aureus [7]): 64 µg/mL (≈ 80.4 µM)

SMILES: CC[C@H]1OC(=O)[C@H](C)C(=O)[C@H](C)[C@@H](O[C@H]2O[C@H](C)C[C@H](N(C)C)[C@H]2O)[C@](C)(OC)C[C@@H](C)/C(=N\OC/C=C/c2cncc3ccccc23)[C@H](C)[C@@H]2OC(=O)O[C@]12C
MIC (Streptococcus pneumoniae [1]): 0.032 µg/mL (≈ 0.0402 µM) | MIC (Staphylococcus aureus [2]): 0.064 µg/mL (≈ 0.0804 µM) | MIC (Streptococcus pneumoniae [3]): 64 µg/mL (≈ 80.4 µM) | MIC (Staphylococcus aureus [5]): 0.5 µg/mL (≈ 0.628 µM) | MIC (Staphylococcus aureus [7]): 256 µg/mL (≈ 322 µM)

SMILES: CC[C@H]1OC(=O)[C@H](C)C(=O)[C@H](C)[C@@H](O[C@H]2O[C@H](C)C[C@H](N(C)C)[C@H]2O)[C@](C)(OC)C[C@@H](C)/C(=N\OC/C=C/c2cncnc2)[C@H](C)[C@@H]2OC(=O)O[C@]12C
MIC (Streptococcus pneumoniae [1]): ≤ 0.016 µg/mL | MIC (Staphylococcus aureus [2]): 0.032 µg/mL (≈ 0.0428 µM) | MIC (Streptococcus pneumoniae [3]): 128 µg/mL (≈ 171 µM) | MIC (Streptococcus pneumoniae [4]): 0.25 µg/mL (≈ 0.335 µM) | MIC (Staphylococcus aureus [5]): 0.032 µg/mL (≈ 0.0428 µM) | MIC (Streptococcus pneumoniae [6]): 1 µg/mL (≈ 1.34 µM) | MIC (Staphylococcus aureus [7]): 256 µg/mL (≈ 343 µM)

SMILES: CC[C@H]1OC(=O)[C@H](C)[C@@H](O[C@H]2C[C@@](C)(OC)[C@@H](O)[C@H](C)O2)[C@H](C)[C@@H](O[C@@H]2O[C@H](C)C[C@H](N(C)C)[C@H]2O)[C@](C)(O)C[C@@H](C)CN(C)[C@H](C)[C@@H](O)[C@]1(C)O [AZITHROMYCIN]
MIC (Streptococcus pneumoniae [1]): 0.064 µg/mL (≈ 0.0854 µM) | MIC (Staphylococcus aureus [2]): 0.5 µg/mL (≈ 0.668 µM) | MIC (Streptococcus pneumoniae [3]): 128 µg/mL (≈ 171 µM) | MIC (Staphylococcus aureus [5]): 64 µg/mL (≈ 85.4 µM) | MIC (Staphylococcus aureus [7]): > 256 µg/mL

MIC (Streptococcus pneumoniae [1]): 16 µg/mL (≈ 17 µM) | MIC (Staphylococcus aureus [2]): 128 µg/mL (≈ 136 µM)
SMILES: CC[C@H]1OC(=O)[C@H](C)C(O/C=C\Cc2cncc3ccccc23)[C@H](C)[C@@H](O[C@H]2O[C@H](C)C[C@H](N(C)C)[C@H]2O)[C@](C)(OC)C[C@@H](C)/C(=N\OC/C=C/c2cncc3ccccc23)[C@H](C)[C@@H](O)[C@]1(C)O (some centres not stated)

SMILES: C=CCOC1[C@@H](C)C(=O)O[C@H](CC)[C@@](C)(O)[C@H](O)[C@@H](C)/C(=N/OC/C=C/c2cncnc2)[C@H](C)C[C@@](C)(OC)[C@H](O[C@H]2O[C@H](C)C[C@H](N(C)C)[C@H]2O)[C@H]1C (some centres not stated)
MIC (Streptococcus pneumoniae [1]): 8 µg/mL (≈ 10.5 µM) | MIC (Staphylococcus aureus [2]): 32 µg/mL (≈ 41.9 µM) | MIC (Streptococcus pneumoniae [3]): 128 µg/mL (≈ 168 µM) | MIC (Streptococcus pneumoniae [4]): 16 µg/mL (≈ 21 µM) | MIC (Staphylococcus aureus [5]): 32 µg/mL (≈ 41.9 µM) | MIC (Streptococcus pneumoniae [6]): 128 µg/mL (≈ 168 µM) | MIC (Staphylococcus aureus [7]): > 256 µg/mL

SMILES: CC[C@H]1OC(=O)[C@H](C)C(=O)[C@H](C)[C@@H](O[C@H]2O[C@H](C)C[C@H](N(C)C)[C@H]2O)[C@](C)(OC)C[C@@H](C)/C(=N\OC/C=C/c2cccnc2)[C@H](C)[C@@H]2OC(=O)O[C@]12C
MIC (Streptococcus pneumoniae [1]): 0.032 µg/mL (≈ 0.0429 µM) | MIC (Staphylococcus aureus [2]): 0.125 µg/mL (≈ 0.168 µM) | MIC (Streptococcus pneumoniae [3]): 128 µg/mL (≈ 172 µM) | MIC (Staphylococcus aureus [5]): 0.125 µg/mL (≈ 0.168 µM) | MIC (Staphylococcus aureus [7]): 256 µg/mL (≈ 343 µM)
